Measured values reported in patent publication US20220304918A1, “Oral Compositions Comprising Hops And Sweeteners” (The Proctor & Gamble Company, priority 2021, published 2022).
Where a SMILES comes first, the peptide text is derived from it.

Assay: Peak sweetness intensity perception relative to sucrose (potency-normalized comparison)
Set-up: key: Quick: display a peak sweetness intensity faster than that experienced for sucrose; Slow: display a peak sweetness intensity slower than that experienced for sucrose
Conditions: sucrose as reference
Source text: The sweeteners listed in TABLE 1 have been categorized with respect to their peak sweetness intensity perception relative to sucrose as either quick or slow. Those sweeteners that have been categorized as “quick” display a peak sweetness intensity faster than that experienced for sucrose. Those sweeteners that have been categorized as “slow” display a peak sweetness intensity slower than that experienced for sucrose. Comparisons of peak sweetness intensity are made using potency-normalized comparisons to account for the different amounts of each ingredient to experience the same absolute peak sweetness.

Compound	Onset Speed Relative to Sucrose
OC[C@@H](O)[C@@H](O)CO [Erythritol]	Quick
OC[C@H]1O[C@H](O[C@]2(CCl)O[C@H](CCl)[C@@H](O)[C@@H]2O)[C@H](O)[C@@H](O)[C@H]1Cl [Sucralose]	Slow
OC[C@@H](O)[C@@H](O)[C@H](O)[C@@H](O)CO [Sorbitol]	Quick
OC[C@@H](O)[C@H](O)[C@@H](O)CO [Xylitol]	Quick
O=C1NS(=O)(=O)c2ccccc21 [Saccharin]	Quick
CC1=CC(=O)NS(=O)(=O)O1 [Acesulfame K]	Quick
Steviosides	Slow
COC(=O)[C@H](Cc1ccccc1)NC(=O)[C@@H](N)CC(=O)O [Aspartame] (H-Asp-Phe-OMe)	Slow
COC(=O)[C@H](Cc1ccccc1)NC(=O)[C@H](CC(=O)O)NCCC(C)(C)C [Neotame]	Slow
